Laboratory results taken from patent US20160115539A1, “USE OF A SLC MAMMALIAN SKIN TRANSPORTER” (GALDERMA RESEARCH & DEVELOPMENT, priority 2013, published 2016).

Legend:
Format in all cases: cell-based
[1] = test system: SLC47A1 (MATE1); assay: Effect of Rifampicin on SLC47A1 mRNA expression in human hepatocytes in primary culture (real time PCR); details: Rifampicin 20 μM, 72 hours
Procedure: (§1) After homogenization of skin samples or hepatocytes in lysis buffer (Promega), total RNA was isolated using SV Total RNA Isolation System (Promega), in accordance with the instructions provided by the constructor. RNA concentrations were quantified spectrophotometrically. Quantification of mRNA expression of human SLC transporters was performed using TaqMan PCR techniques (Applied Biosystems). Experiments were carried out on a 7500 real time PCR System (Applied Biosystems) using Assay-on-Demand gene expression products. For this, 500 ng of total RNA were reverse-transcribed using the High Capacity RNA to cDNA Master Mix kit (Applied Biosystems).

[2] = test system: SLC47A2 (MATE2); assay: Effect of Rifampicin on SLC47A2 mRNA expression in human skin organoculture (real time PCR); details: Rifampicin 20 μM, 72 hours
Procedure: (§2) Fresh human skin samples from 3 different donors were used and maintained in organoculture. Four skin biopsies of 6 mm diameter were used per well of 6-well plate, filled with long term skin culture medium (Biopredic, France) (FIG. 1). Skin samples were treated with 20 μM Rifampicin during 3 days. In a separate experiment, skin samples were exposed during one hour every day during 3 days to UV lights via a solar simulator (UVA 110 W/m^2; UVB 20 W/m^2). Untreated skin samples were used as control. The culture plates were kept in a cell culture incubator set at 37° C., 5% CO2 and saturated hygrometry. At the end of treatment period gene expression of SLC transporters was measured as described above.
as §1

[3] = test system: SLC47A1 (MATE1); assay: Effect of Rifampicin on SLC47A1 mRNA expression in human skin organoculture (real time PCR); details: Rifampicin 20 μM, 72 hours, p≦0.05
Procedure: as §2, §1

SMILES: CO[C@H]1/C=C/O[C@@]2(C)Oc3c(C)c(O)c4c(O)c(c(/C=N/N5CCN(C)CC5)c(O)c4c3C2=O)NC(=O)/C(C)=C\C=C\[C@H](C)[C@H](O)[C@@H](C)[C@@H](O)[C@@H](C)[C@H](OC(C)=O)[C@@H]1C [Rifampicin]
- decrease in expression of SLC47A1 (MATE1) [1]: 48%
- decrease in MATE2 expression [2]: 30%
- decrease in MATE1 expression [3]: 44%
